Experimental data: US7118744B2, “Immunogenic compositions for induction of anti-tumor immunity” (Yeda Research and Development Co., Ltd., priority 1997, dated 2006)
Ends that are not written are not given here.

How the values were obtained:
Meth A Sarcoma Cells = experiment: Rejection of Meth A tumor challenge in immunized mice; assay type: in vivo; conditions: BALB/c mice immunized with 100 μg CDR-based peptide
Method: (a) The Meth A tumor is a transplantable 3-methylcholantrene-induced sarcoma of BALB/c origin (Old et al., 1962) that has three mutations in the p53 coding sequence (Arai et al., 1986). The cells were grown in DMEM containing 10% heat-inactivated fetal calf serum (FCS), and passaged through BALB/c mice to select for tumorogenicity. For challenge, mice were injected intradermally with 10^6 Meth A cells. […] Rejection was scored as the disappearance of the tumor mass within 20 days after tumor challenge.
To learn whether immunization with anti-p53 mAb might influence in vivo the development of a tumor bearing a mutated form of the p53 molecule, groups of BALB/c female mice were immunized as above with either mAb 240, mAb 246, mAb 421 or mAb 9E 10. The mice were challenged intradermally with 10^6 Meth A tumor cells 10 days after the boost. Non-immunized mice were also tested.
Immunization of BALB/c mice with peptides V–IX of Example 3 was carried out as described for the whole mAbs in Materials and Methods, section iv, using 100 μg of peptide, and then assayed for the development of anti-p53 antibodies.

p53 = experiment: Induction of anti-p53 antibodies in immunized mice, ELISA on wild type p53; assay type: in vivo, mouse; conditions: BALB/c mice immunized with 100 μg of peptide
Method: E Coli BL21 (DE3) cells transformed with the T7 expression vector containing regularly spliced mouse p53 cDNA were used to express wild type or mutant p53 as previously described (Shohat-Foord et at., 1991; Wolkowicz et al., 1995). For protein induction, IPTG at a final concentration of 0.4 mM was added when the cells had reached an O.D.600 of 0.8–1.0. Three hours after induction, the cells were harvested from a 200 ml culture by centrifugation, and the pellet was resuspended in 5 ml of ice-cold lysis buffer (20 mM Tris-HCl, pH: 7.4; 500 mM NaCl; 10% glycerol; 1 mM EDTA; 1 mM PMSF; 5 μg/ml leupeptine; 10 μg/ml aprotinin and 0.1% NP40). The lysate was subjected to sonication for 10 cycles of 15 s of sonication followed by 15 s of gentle swirling. The solicited sample was subjected to two cycles of freeze-thaw and then centrifuged for 10 min at 10.000× g. […]
[…] Antibodies were measured after booster immurdzation.
For the ELISA assay flat bottom maxi-sorb plates (Nunc, Roskilde, Denmark) were coated with 50 μl per well of mutant or wild type p53 at a concentration of 10 μg/ml. […] After washing, the plates were incubated with the substrate, p-nitrophenil phosphate disodium (Sigma) and read using an ELISA reader at 405 nm. Sera manifesting an O.D. reading, after substraction of the background, of 0.3 or greater, were scored as positive.

Which “Incidence of Rejected Tumors” value (Meth A Sarcoma Cells) does the source give for “VYFCQQSNSWPVHARGGGTK [Peptide IX, includes CDR3 of the light chain of mAb 248]” here?
Its value is 4/5.

How did the “Incidence of Rejected Tumors” value (Meth A Sarcoma Cells) turn out when “GDINPNNGYTIYNQKVKGKA [Peptide VII, includes CDR2 of the heavy chain of mAb 246]” was run?
The value was 5/5.

“GVYYCWQGTHSPLTFGAGTK [Peptide VI, includes CDR3 of the light chain of mAb 421]” was tested. Which “Incidence of Rejected Tumors” value (Meth A Sarcoma Cells) did it give?
The value was 5/5.

And the “incidence of mice developing IgG anti-p53 antibodies (ELISA assay)” value (p53)?
The value was 7/10.

How did the “Incidence of Rejected Tumors” value (Meth A Sarcoma Cells) turn out when “AVYYCARSGSRFDYWGEGTT [Peptide VIII, includes CDR3 of the heavy chain of mAb 248]” was run?
The value was 4/5.

What does the source list for “YYCQHIRELTRSEGGPS [Peptide V, includes CDR3 of the light chain of mAb 240]”?
Incidence of Rejected Tumors (Meth A Sarcoma Cells): 4/5; incidence of mice developing IgG anti-p53 antibodies (ELISA assay) (p53): 8/10
